Measured values taken from patent US20220041681A1 (MEDIMMUNE LIMITED, priority 2016, published 2022).
Where “and” joins values, the source holds several entries; their conditions need not be identical. Identical values can stand only once. Numbered stars: 1 amine (or outer) side, 2 acyl side, 3 side chain; on linkers, the order of the positions; unused ones are H or OH. Side chains are listed from the residue outwards. Peptide text beside a SMILES is read from it. * marks the point of attachment. γGlu = O=C(O)[C@H](CCC(=O)[*:2])N[*:1]; Palmitoyl = CCCCCCCCCCCCCCCC(=O)*

How the values were obtained:
Human GlucR [1] = molecular target: T1, Human GlucR (Homo sapiens, UniProt P47871); assay: cAMP assay in presence of serum albumin (assay 2), 4.4% human serum albumin; type: cell-based; details: relative potency GlucR / relative potency GLP1R vs native ligands
T1 construct: expressed in transfected cells
T1 sequence (P47871 26-477): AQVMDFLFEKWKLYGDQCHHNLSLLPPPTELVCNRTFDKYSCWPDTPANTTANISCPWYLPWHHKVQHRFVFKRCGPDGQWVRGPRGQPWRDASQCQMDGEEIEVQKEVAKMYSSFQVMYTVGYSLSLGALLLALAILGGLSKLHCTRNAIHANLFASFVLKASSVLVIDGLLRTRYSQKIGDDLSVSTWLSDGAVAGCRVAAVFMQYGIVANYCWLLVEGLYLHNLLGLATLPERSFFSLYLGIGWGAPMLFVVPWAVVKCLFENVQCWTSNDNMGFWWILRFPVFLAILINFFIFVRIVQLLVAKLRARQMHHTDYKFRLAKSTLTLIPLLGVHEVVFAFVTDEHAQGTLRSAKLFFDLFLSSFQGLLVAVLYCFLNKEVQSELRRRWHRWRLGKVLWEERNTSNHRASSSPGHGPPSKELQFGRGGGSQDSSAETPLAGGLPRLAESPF
Description: (§1) CHO cells with stable recombinant expression of the human, mouse or rat GlucR or GLP-t receptor were cultured in DMEM 10% FBS and geneticin (100 μg/mil). Cryopreserved cell stocks were prepared in 1× cell freezing medium-DMSO serum free (Sigma Aldrich) at 2×10^7/vial and stored at […]. […] Peptides were serially diluted in DMSO and then diluted 100 fold into DMEM containing serum albumin at stated final concentration. […] Cells were added to the assay plates and incubated for 30 min at room temperature. Following incubation the assay was stopped and cAMP levels measured using the HTRF® dynamic d2 cAMP assay kit available from CisBio Bioassays, as per the manufacturer's guidelines. Plates were read on Perkin Elmer ENVISION® fluorescence plate readers. Human and rat serum albumin were purchased from Sigma Aldrich and mouse serum albumin from Equitech Bio Ltd.

Mouse GlucR = molecular target: T2, Mouse GlucR (Mus musculus, UniProt Q61606); assay: cAMP assay in presence of serum albumin (assay 2), 3.2% mouse serum albumin; type: cell-based; details: relative potencies vs native ligands
T2 construct: expressed in transfected cells
T2 sequence (Q61606 27-485): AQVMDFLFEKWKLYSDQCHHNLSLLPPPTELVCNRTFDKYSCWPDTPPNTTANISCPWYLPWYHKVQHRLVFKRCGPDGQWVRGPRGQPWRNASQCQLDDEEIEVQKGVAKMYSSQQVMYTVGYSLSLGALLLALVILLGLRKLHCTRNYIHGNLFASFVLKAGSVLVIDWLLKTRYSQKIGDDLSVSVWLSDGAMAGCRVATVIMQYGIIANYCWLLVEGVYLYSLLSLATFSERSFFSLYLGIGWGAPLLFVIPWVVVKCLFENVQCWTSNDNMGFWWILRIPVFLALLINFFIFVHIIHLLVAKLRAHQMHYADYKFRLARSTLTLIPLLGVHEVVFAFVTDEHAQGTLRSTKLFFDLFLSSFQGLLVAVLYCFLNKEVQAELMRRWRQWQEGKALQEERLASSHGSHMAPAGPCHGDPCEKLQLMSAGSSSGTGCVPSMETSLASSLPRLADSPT
Description: as §1

Human GlucR [2] = molecular target: T1, Human GlucR; assay: cAMP activity assay (assay 1) in assay medium; type: cell-based; details: Table 4, additional peptides, read-out: hGlucR EC50
Description: (§2) All sample dilutions were made in duplicate.
(§3) A frozen cryo-vial of cells expressing the receptor of interest was thawed rapidly in a water-bath, transferred to pre-warmed assay media and spun at 240×g for 5 minutes. Cells were re-suspended in assay media at an optimized concentration (e.g. hGCGR cells at 1×10^5 cells/ml, hGLP-1R and hGIPR cells at 0.5×10^5 cells/ml).
(§4) To this, 5 μL cell suspension was added and the plates incubated at room temperature for 30 minutes.
(§5) cAMP levels were measured using a commercially available cAMP dynamic 2 HTRF kit (Cisbio, Cat #62AM4PEJ), following the two step protocol as per manufacturer's recommendations. In brief; anti-cAMP cryptate (donor fluorophore) and cAMP-d2 (acceptor fluorophore) were made up separately by diluting each 120 in conjugate & lysis buffer provided in the kit. 5 μL anti-cAMP cryptate was added to all wells of the assay plate, and 5 μL cAMP-d2 added to all wells except non-specific binding (NSB) wells, to which conjugate and lysis buffer was added.

Human GLP1R = Human GLP1R (Homo sapiens, UniProt P43220); assay: cAMP activity assay (assay 1) in assay medium; type: cell-based; details: Table 4, additional peptides, read-out: hGLP1R EC50
Human GLP1R, sequence (P43220 24-463): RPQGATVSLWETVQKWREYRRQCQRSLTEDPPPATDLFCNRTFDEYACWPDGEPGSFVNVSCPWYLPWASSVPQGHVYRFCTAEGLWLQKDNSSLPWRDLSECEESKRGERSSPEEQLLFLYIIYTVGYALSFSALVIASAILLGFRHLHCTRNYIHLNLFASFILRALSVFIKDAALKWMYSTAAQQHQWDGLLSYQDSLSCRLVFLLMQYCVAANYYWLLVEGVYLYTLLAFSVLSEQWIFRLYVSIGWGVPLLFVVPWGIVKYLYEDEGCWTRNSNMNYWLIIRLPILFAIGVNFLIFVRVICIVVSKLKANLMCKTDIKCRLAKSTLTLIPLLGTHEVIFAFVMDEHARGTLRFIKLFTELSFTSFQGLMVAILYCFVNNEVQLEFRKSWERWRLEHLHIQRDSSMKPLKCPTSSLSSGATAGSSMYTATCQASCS
Description: as §2, §3, §4, §5

Human GIPr = molecular target: T3, Human GIPr (Homo sapiens, UniProt P48546); assay: cAMP activity assay (assay 1) in assay medium; type: cell-based; details: Table 4, additional peptides, read-out: hGIPR EC50
T3 sequence (P48546 22-466): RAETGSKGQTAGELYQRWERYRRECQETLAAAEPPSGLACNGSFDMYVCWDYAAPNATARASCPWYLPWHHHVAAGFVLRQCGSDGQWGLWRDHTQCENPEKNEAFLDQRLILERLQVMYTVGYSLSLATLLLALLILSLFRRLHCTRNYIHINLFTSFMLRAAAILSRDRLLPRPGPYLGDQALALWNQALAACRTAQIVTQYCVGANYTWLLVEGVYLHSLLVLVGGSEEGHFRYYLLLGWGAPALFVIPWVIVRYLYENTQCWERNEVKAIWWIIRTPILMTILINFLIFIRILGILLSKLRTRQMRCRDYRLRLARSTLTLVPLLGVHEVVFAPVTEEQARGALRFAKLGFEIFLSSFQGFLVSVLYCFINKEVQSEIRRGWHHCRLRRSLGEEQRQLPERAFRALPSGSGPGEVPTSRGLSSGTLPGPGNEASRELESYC
Description: as §2, §3, §4, §5

[3] = frozen blank plasma from rat; details: 37° C., up to 48 hours
[4] = frozen blank plasma from mouse; details: 37° C., up to 48 hours

| Compound | EC50 (Human GlucR [2]) [nM] | EC50 (Human GLP1R) [nM] | fragment found [3] | further results |
| --- | --- | --- | --- | --- |
| CCCCCCCCCCCCCCCC(=O)N[C@@H](CCC(=O)NCCCC[C@H](NC(=O)[C@H](CO)NC(=O)[C@H](CC(=O)O)NC(=O)[C@H](CC(C)C)NC(=O)[C@H](Cc1ccc(O)cc1)NC(=O)[C@H](CCCCN)NC(=O)[C@H](CO)NC(=O)[C@H](Cc1ccc(O)cc1)NC(=O)[C@H](CC(=O)O)NC(=O)[C@H](CO)NC(=O)[C@@H](NC(=O)[C@H](Cc1ccccc1)NC(=O)[C@@H](NC(=O)CNC(=O)[C@H](CCC(N)=O)NC(=O)CNC(=O)[C@@H](N)Cc1c[nH]cn1)[C@@H](C)O)[C@@H](C)O)C(=O)N[C@@H](CCCNC(=N)N)C(=O)N[C@@H](C)C(=O)N[C@@H](CCC(N)=O)C(=O)N[C@@H](CC(=O)O)C(=O)N[C@@H](Cc1ccccc1)C(=O)N[C@H](C(=O)N[C@@H](CCC(N)=O)C(=O)N[C@@H](Cc1c[nH]c2ccccc12)C(=O)N[C@@H](CC(C)C)C(=O)N[C@H](C(=O)N[C@@H](C)C(=O)NCC(=O)NCC(N)=O)C(C)C)C(C)C)C(=O)O [Peptide G380] | – | – | – | Human GlucR/GLP1R Ratio (Human GlucR [1]): 0.013; Mouse GlucR/GLP1R Ratio (Mouse GlucR): 0.006 |
| CCCCCCCCCCCCCCCC(=O)N[C@@H](CCC(=O)NCCCC[C@H](NC(=O)[C@H](CO)NC(=O)[C@H](CC(=O)O)NC(=O)[C@H](CC(C)C)NC(=O)[C@H](Cc1ccc(O)cc1)NC(=O)[C@H](CCCCN)NC(=O)[C@H](CO)NC(=O)[C@H](Cc1ccc(O)cc1)NC(=O)[C@H](CC(=O)O)NC(=O)[C@H](CO)NC(=O)[C@@H](NC(=O)[C@H](Cc1ccccc1)NC(=O)[C@@H](NC(=O)CNC(=O)[C@H](CCC(N)=O)NC(=O)CNC(=O)[C@@H](N)Cc1c[nH]cn1)[C@@H](C)O)[C@@H](C)O)C(=O)N[C@@H](CCCNC(=N)N)C(=O)N[C@@H](C)C(=O)N[C@@H](CCC(N)=O)C(=O)N[C@@H](CC(=O)O)C(=O)N[C@@H](Cc1ccccc1)C(=O)N[C@H](C(=O)N[C@@H](CCC(N)=O)C(=O)N[C@@H](Cc1c[nH]c2ccccc12)C(=O)N[C@@H](CC(C)C)C(=O)N[C@H](C(=O)N[C@@H](C)C(=O)NCC(=O)NCC(N)=O)C(C)C)C(C)C)C(=O)O [g3 ? 0] | 0.362 | 0.1 | – | – |
| CC(C)C[C@H](NC(=O)[C@H](Cc1ccc(O)cc1)NC(=O)[C@H](CCCCN)NC(=O)[C@H](CO)NC(=O)[C@H](Cc1ccc(O)cc1)NC(=O)[C@H](CC(=O)O)NC(=O)[C@H](CO)NC(=O)[C@@H](NC(=O)[C@H](Cc1ccccc1)NC(=O)[C@@H](NC(=O)CNC(=O)[C@H](CCC(N)=O)NC(=O)[C@H](CO)NC(=O)[C@@H](N)Cc1c[nH]cn1)[C@@H](C)O)[C@@H](C)O)C(=O)N[C@@H](CC(=O)O)C(=O)N[C@@H](CO)C(=O)N[C@@H](CCCNC(=N)N)C(=O)N[C@@H](CCCNC(=N)N)C(=O)N[C@@H](C)C(=O)N[C@@H](CCC(N)=O)C(=O)N[C@@H](CC(=O)O)C(=O)N[C@@H](Cc1ccccc1)C(=O)N[C@H](C(=O)N[C@@H](CCC(N)=O)C(=O)N[C@@H](Cc1c[nH]c2ccccc12)C(=O)N[C@@H](CC(C)C)C(=O)N[C@H](C(=O)N[C@@H](C)C(=O)NCC(=O)NCC(=O)NCC(=O)NCC(=O)NCC(=O)NCC(=O)N[C@@H](CCCCN)C(N)=O)C(C)C)C(C)C [g32 ?] | 0.0103 | 0.0261 | – | – |
| CCCCCCCCCCCCCCCC(=O)N[C@@H](CCC(=O)NCCCC[C@H](NC(=O)[C@H](CCCCN)NC(=O)[C@H](CO)NC(=O)[C@H](Cc1ccc(O)cc1)NC(=O)[C@H](CC(=O)O)NC(=O)[C@H](CO)NC(=O)[C@@H](NC(=O)[C@H](Cc1ccccc1)NC(=O)[C@@H](NC(=O)CNC(=O)[C@H](CCC(N)=O)NC(=O)C(C)(C)NC(=O)[C@@H](N)Cc1c[nH]cn1)[C@@H](C)O)[C@@H](C)O)C(=O)N[C@@H](CC(C)C)C(=O)N[C@@H](CC(=O)O)C(=O)N[C@@H](CO)C(=O)N[C@@H](CCC(=O)O)C(=O)N[C@@H](CCCNC(=N)N)C(=O)N[C@@H](C)C(=O)N[C@@H](CCCNC(=N)N)C(=O)N[C@@H](CC(=O)O)C(=O)N[C@@H](Cc1ccccc1)C(=O)N[C@H](C(=O)N[C@@H](C)C(=O)N[C@@H](Cc1c[nH]c2ccccc12)C(=O)N[C@@H](CC(C)C)C(=O)N[C@H](C(=O)N[C@@H](C)C(=O)NCC(=O)NCC(N)=O)C(C)C)C(C)C)C(=O)O [g87 ?] | 0.129 | 0.0298 | – | – |
| CCCCCCCCCCCCCCCC(=O)N[C@@H](CCC(=O)NCCCC[C@H](NC(=O)[C@H](Cc1ccc(O)cc1)NC(=O)[C@H](CCCCN)NC(=O)[C@H](CO)NC(=O)[C@H](Cc1ccc(O)cc1)NC(=O)[C@H](CC(=O)O)NC(=O)[C@H](CO)NC(=O)[C@@H](NC(=O)[C@H](Cc1ccccc1)NC(=O)[C@@H](NC(=O)CNC(=O)[C@H](CCC(N)=O)NC(=O)[C@H](CO)NC(=O)[C@@H](N)Cc1c[nH]cn1)[C@@H](C)O)[C@@H](C)O)C(=O)N[C@@H](CC(=O)O)C(=O)N[C@@H](CO)C(=O)N[C@@H](CCCNC(=N)N)C(=O)N[C@@H](CCCNC(=N)N)C(=O)N[C@@H](C)C(=O)N[C@@H](CCC(N)=O)C(=O)N[C@@H](CC(=O)O)C(=O)N[C@@H](Cc1ccccc1)C(=O)N[C@H](C(=O)N[C@@H](CCC(N)=O)C(=O)N[C@@H](Cc1c[nH]c2ccccc12)C(=O)N[C@@H](CC(C)C)C(=O)N[C@@H](CCC(=O)O)C(=O)N[C@@H](C)C(=O)NCC(=O)NCC(N)=O)C(C)C)C(=O)O [g601] (H-HSQGTFTSDYSKYK([γGlu-Palmitoyl])DSRRAQDFVQWLEAGG-NH2; N-terminus assumed) | – | – | – | EC50 (Human GIPr): 0.0741 nM |
| CCCCCCCCCCCCCCCC(=O)N[C@@H](CCC(=O)NCCCC[C@H](NC(=O)[C@H](CO)NC(=O)[C@H](CC(=O)O)NC(=O)[C@H](CC(C)C)NC(=O)[C@H](Cc1ccc(O)cc1)NC(=O)[C@H](CCCCN)NC(=O)[C@H](CO)NC(=O)[C@H](Cc1ccc(O)cc1)NC(=O)[C@H](CC(=O)O)NC(=O)[C@H](CO)NC(=O)[C@@H](NC(=O)[C@H](Cc1ccccc1)NC(=O)[C@@H](NC(=O)CNC(=O)[C@H](CCC(N)=O)NC(=O)CNC(=O)[C@@H](N)Cc1c[nH]cn1)[C@@H](C)O)[C@@H](C)O)C(=O)N[C@@H](CCCNC(=N)N)C(=O)N[C@@H](C)C(=O)N[C@@H](CCCNC(=N)N)C(=O)N[C@@H](CC(=O)O)C(=O)N[C@@H](Cc1ccccc1)C(=O)N[C@H](C(=O)N[C@@H](CCC(=O)O)C(=O)N[C@@H](Cc1c[nH]c2ccccc12)C(=O)N[C@@H](CC(C)C)C(=O)N[C@H](C(=O)N[C@@H](C)C(=O)NCC(=O)NCC(N)=O)C(C)C)C(C)C)C(=O)O [g660] (H-HGQGTFTSDYSKYLDSK([γGlu-Palmitoyl])RARDFVEWLVAGG-NH2; N-terminus assumed) | – | – | – | EC50 (Human GIPr): 3.32 nM |
| CCCCCCCCCCCCCCCC(=O)N[C@@H](CCC(=O)NCCCC[C@H](NC(=O)[C@H](CCC(=O)O)NC(=O)[C@H](CO)NC(=O)[C@H](Cc1ccc(O)cc1)NC(=O)[C@H](CC(=O)O)NC(=O)[C@H](CO)NC(=O)[C@@H](NC(=O)[C@H](Cc1ccccc1)NC(=O)[C@@H](NC(=O)CNC(=O)[C@H](CCC(N)=O)NC(=O)[C@H](CO)NC(=O)[C@@H](N)Cc1c[nH]cn1)[C@@H](C)O)[C@@H](C)O)C(=O)N[C@@H](CC(C)C)C(=O)N[C@@H](CC(=O)O)C(=O)N[C@@H](CO)C(=O)N[C@@H](CCC(=O)O)C(=O)N[C@@H](CCCNC(=N)N)C(=O)N[C@@H](C)C(=O)N[C@@H](CCCNC(=N)N)C(=O)N[C@@H](CC(=O)O)C(=O)N[C@@H](Cc1ccccc1)C(=O)N[C@H](C(=O)N[C@@H](C)C(=O)N[C@@H](Cc1c[nH]c2ccccc12)C(=O)N[C@@H](CC(C)C)C(=O)N[C@H](C(=O)N[C@@H](C)C(=O)NCC(=O)NCC(N)=O)C(C)C)C(C)C)C(=O)O [g802] (H-HSQGTFTSDYSEK([γGlu-Palmitoyl])LDSERARDFVAWLVAGG-NH2; N-terminus assumed) | – | 0.0364 | – | – |
| HSQGTFTSDXSEYLDSERARDFVAWLEAGG-amide X10 = K(gE-palm) | – | – | DPP cleaved product, minor | fragment found [4]: DPP cleaved product, minor |
| HSQGTFTSDXSRYLDSRSARDFVAWLEAGG-amide X10 = K(gE-palm) | – | – | DPP IV-cleavage product, 3% at 24 h | – |
| HSQGTFTSDYSKXLDSERARDFVAWLVAGG-amide X13 = K(gE-palm) | – | – | DPP IV-cleavage product, 2% at 24 h | fragment found [4]: DPP IV-cleavage product, 14% at 24 h and +1 DPP cleaved product, 5% at 24 h |
